According to patent publication US5232923A, “Catechol derivatives and pharmaceutical preparations containing same” (Mitsui Toatsu Chemicals, Incorporated, priority 1988, dated 1993):

Columns and labels:
[1] = system: production and secretion of NGF in mouse L-M cells; experiment: Promoting activity for the production and secretion of NGF in mouse L-M cells (ELISA of medium after 24 h); format: cell-based; details: Table 5, L-M cells, 0.4 mM; for fold induction at 400 µM: Mus musculus, 24 h, fold increase over control (1.00), read-out: NGF L-M Cell Increase Ratio; for NGF L-M Cell Concentration: 24 hours, control 0.87
Description: Promoting activity for the production and secretion of NGF in mouse L-M cells
The medium was cultured for 3 days at a temperature of 37° C. […] The sample of the derivative tested is contained in the medium at a prescribed concentration as illustrated in the Tables. […] Data are expressed as fold increase in NGF content of the medium over that cultivated in the absence of the derivative to be tested. […] Data are presented as the mean of four determinations. The results are illustrated in Tables 1-5.

[2] = system: production and secretion of NGF in mouse brain astroglial cells; experiment: Promoting activity for the production and secretion of NGF in mouse brain astroglial cells (ELISA of medium after 24 h); format: cell-based; details: Table 5, 0.4 mM; for fold induction at 400 µM: Mus musculus, 24 h, fold increase over control (1.00), read-out: NGF Astroglial Cell Increase Ratio; for NGF Astroglial Cell Concentration: 24 hours, control 31.8
Description: Promoting activity for the production and secretion of NGF in mouse brain astroglial cells
The experiment was performed by inducing astroglial cells from the mouse forebrain to a culture system according to the procedures of S. Furukawa et al. which is described in Biochem. Biophys. Res. Commun., 136, 57-63 (1986).
Forebrains of 8-days old mice were dissected out and cut into small pieces. The pieces were washed with calcium- and magnesium-free phosphate-bufferedsaline (hereinafter abbreviated as PBS), treated with 0.25% trypsin containing PBS at 37° C. for 30 minutes and triturated with a Pasteur pipet to give a suspension. Cells and cell clumps were recovered by centrifugation at 200 xg for 5 minutes. They were cultured in Dulbecco modified Eagle's medium (a product of Gibco Co. hereinafter abbreviated as DMEM) containing 10% fetal calf serum, 50 μ units/ml of penicillin, and 50 μg/ml of streptomycin, for 10 to 14 days with medium changes every 3 days. After completing confluency, the cells were dissociated by trypsin treatment and recultured in new culture flasks. This procedure was repeated further twice and more. The culture became a uniform cell cluster. The cell cluster for use in this invention can be stained not less than 97% in accordance with the PAP staining method (peroxidase/[…] staining method) using anti-human glial fibrillar acidic protein (GFAP) rabbit antiserum. The cells will hereinafter be referred to as astroglial cells.
Astroglial cells were innoculated in 24-well plates having a well surface area of 2.1 cm^2 (a product of Falcon Co.) at a cell density of about 3×10^4 cells/well and cultured for 3 days in DMEM medium supplemented with 10% of fetal calf serum. After completing confluency about ([…]), the medium was changed to DMEM medium (0.5 ml/well) supplemented with 0.5% of bovine serum albumin (fraction V) and cultured for 3 days. The culture was further continued with medium changes every 3 days. After cells were practically synchronized in the quiscent stage, the medium was changed to 0.5 ml of the same medium and containing a prescribed concentration of test sample as illustrated in the Tables. NGF in the medium after cultivating for 24 hours was determined by the ELISA as mentioned above. Data are expressed as fold increase in NGF content over that in the absence of the test sample. The lower detection limit of the ELISA is 0.25 pg/ml and the NGF content of control medium was normally 1-10 pg/0.5 ml/well. Data are presented as the mean of four determinations. The results are illustrated in Tables 1-5.

## CCCCCNC(=O)CCc1ccc(O)c(O)c1 [Compound 86, N-n-Pentyl-3,4-dihydroxyphenylpropionamide]
[1]
  fold induction at 400 µM: 6.5
  NGF L-M Cell Concentration: 5.66 ng/well
[2]
  fold induction at 400 µM: 30.3
  NGF Astroglial Cell Concentration: 493.9 ng/well

## CCCCCCNC(=O)CCc1ccc(O)c(O)c1 [Compound 87, N-n-Hexyl-3,4-dihydroxyphenylpropionamide]
[1]
  fold induction at 400 µM: 5.8
  NGF L-M Cell Concentration: 5.05 ng/well
[2]
  fold induction at 400 µM: 12
  NGF Astroglial Cell Concentration: 195.6 ng/well

## CCCCCCNC(=O)CCc1ccc(OC(C)=O)c(OC(C)=O)c1 [Compound 88, N-n-Hexyl-3,4-diacetoxyphenylpropionamide]
[1]
  fold induction at 400 µM: 6.2
  NGF L-M Cell Concentration: 5.39 ng/well
[2]
  fold induction at 400 µM: 15.8
  NGF Astroglial Cell Concentration: 257.5 ng/well

## CCCCCCCCCCCCNC(=O)CCc1ccc(O)c(O)c1 [Compound 89, N-Lauryl-3,4-dihydroxyphenylpropionamide]
[1]
  fold induction at 400 µM: 4.3
  NGF L-M Cell Concentration: 3.74 ng/well
[2]
  fold induction at 400 µM: 5
  NGF Astroglial Cell Concentration: 81.5 ng/well

## CCCCN(C)C(=O)CCc1ccc(O)c(O)c1 [Compound 90, N-n-Butyl-N-methyl-3,4-dihydroxyphenylpropionamide]
[1]
  fold induction at 400 µM: 6.4
  NGF L-M Cell Concentration: 5.57 ng/well
[2]
  fold induction at 400 µM: 30
  NGF Astroglial Cell Concentration: 489.0 ng/well

## CCCCCCCCCCCCCCCCCCNC(=O)CCc1ccc(O)c(O)c1 [Compound 91, N-Stearyl-3,4-dihydroxyphenylpropionamide]
[1]
  fold induction at 400 µM: 4.1
  NGF L-M Cell Concentration: 3.57 ng/well
[2]
  fold induction at 400 µM: 5.2
  NGF Astroglial Cell Concentration: 84.8 ng/well

## CCCCCCN(CCCCCC)C(=O)CCc1ccc(O)c(O)c1 [Compound 92, N,N-Di-n-hexyl-3,4-dihydroxyphenylpropionamide]
[1]
  fold induction at 400 µM: 5
  NGF L-M Cell Concentration: 4.35 ng/well
[2]
  fold induction at 400 µM: 8.8
  NGF Astroglial Cell Concentration: 143.4 ng/well

## O=C(CCc1ccc(O)c(O)c1)NC1CCCCC1 [Compound 93, N-Cyclohexyl-3,4-dihydroxyphenylpropionamide]
[1]
  fold induction at 400 µM: 6
  NGF L-M Cell Concentration: 5.22 ng/well
[2]
  fold induction at 400 µM: 9.9
  NGF Astroglial Cell Concentration: 161.4 ng/well

## CN(Cc1ccccc1)C(=O)CCc1ccc(O)c(O)c1 [Compound 94, N-Methyl N-benzyl-3,4-dihydroxyphenylpropionamide]
[1]
  fold induction at 400 µM: 5.1
  NGF L-M Cell Concentration: 4.44 ng/well
[2]
  fold induction at 400 µM: 5.2
  NGF Astroglial Cell Concentration: 84.8 ng/well

## O=C(CCc1ccc(O)c(O)c1)Nc1ccccc1 [Compound 95, N-Phenyl-3,4-dihydroxyphenylpropionamide]
[1]
  fold induction at 400 µM: 5.9
  NGF L-M Cell Concentration: 5.13 ng/well
[2]
  fold induction at 400 µM: 11.2
  NGF Astroglial Cell Concentration: 182.6 ng/well

## O=C(CCc1ccc(O)c(O)c1)NC12CC3CC(CC(C3)C1)C2 [Compound 96, N-Adamantyl-3,4-dihydroxyphenylpropionamide]
[1]
  fold induction at 400 µM: 5.7
  NGF L-M Cell Concentration: 4.96 ng/well
[2]
  fold induction at 400 µM: 18
  NGF Astroglial Cell Concentration: 293.4 ng/well

## O=C(CCc1ccc(O)c(O)c1)N1CCCCC1 [Compound 97, N-[3-(3,4-Dihydroxyphenyl)propionyl]piperidine]
[1]
  fold induction at 400 µM: 6.2
  NGF L-M Cell Concentration: 5.39 ng/well
[2]
  fold induction at 400 µM: 13.7
  NGF Astroglial Cell Concentration: 435.7 ng/well

## O=C(CCc1ccc(O)c(O)c1)N1CCCC1 [Compound 98, N-[3-(3,4-Dihydroxyphenyl)propionyl]pyrrolidine]
[1]
  fold induction at 400 µM: 6.1
  NGF L-M Cell Concentration: 5.31 ng/well
[2]
  fold induction at 400 µM: 12.8
  NGF Astroglial Cell Concentration: 407.0 ng/well

## O=C(CCc1ccc(O)c(O)c1)N1CCOCC1 [Compound 99, N-[3-(3,4-Dihydroxyphenyl)propionyl]morpholine]
[1]
  fold induction at 400 µM: 4.8
  NGF L-M Cell Concentration: 4.18 ng/well
[2]
  fold induction at 400 µM: 5.2
  NGF Astroglial Cell Concentration: 165.4 ng/well

## CN1CCN(C(=O)CCc2ccc(O)c(O)c2)CC1 [Compound 100, N-Methyl-N'-[3-(3,4-dihydroxyphenyl)propionyl]piperazine]
[1]
  fold induction at 400 µM: 5
  NGF L-M Cell Concentration: 4.35 ng/well
[2]
  fold induction at 400 µM: 8.2
  NGF Astroglial Cell Concentration: 260.8 ng/well

## O=C(CCc1ccc(O)c(O)c1)N1CCN(Cc2ccccc2)CC1 [Compound 101, N-Benzyl-N'-[3-(3,4-dihydroxyphenyl)propionyl]piperazine]
[1]
  fold induction at 400 µM: 5.2
  NGF L-M Cell Concentration: 4.52 ng/well
[2]
  fold induction at 400 µM: 9.6
  NGF Astroglial Cell Concentration: 305.3 ng/well

## O=C(CCc1ccc(O)c(O)c1)N1CCN(C(c2ccccc2)c2ccccc2)CC1 [Compound 102, N-Diphenylmethyl-N'-[3-(3,4-dihydroxyphenyl)propionyl]piperazine]
[1]
  fold induction at 400 µM: 5.1
  NGF L-M Cell Concentration: 4.44 ng/well
[2]
  fold induction at 400 µM: 10.1
  NGF Astroglial Cell Concentration: 321.2 ng/well

## COC(=O)[C@@H]1CCCN1C(=O)CCc1ccc(O)c(O)c1 [Compound 103, N-[3-(3,4-dihydroxyphenyl)propionyl]-L-proline methyl ester]
[1]
  fold induction at 400 µM: 4.3
  NGF L-M Cell Concentration: 3.74 ng/well
[2]
  fold induction at 400 µM: 6.3
  NGF Astroglial Cell Concentration: 200.3 ng/well

## CCOC(=O)C1CCCN(C(=O)CCc2ccc(O)c(O)c2)C1 (stereo not shown) [Compound 104, Ethyl N-[3-(3,4-dihydroxyphenyl)propionyl]nipecotinate]
[1]
  fold induction at 400 µM: 5.7
  NGF L-M Cell Concentration: 4.96 ng/well
[2]
  fold induction at 400 µM: 7.8
  NGF Astroglial Cell Concentration: 248.0 ng/well
